In patent US6765096B1, “Tricyclic compound having acyloxymethoxycarbonyl side chain” (Shionogi & Co., Ltd., priority 1999, dated 2004):

Columns and labels:
[1] = test system: anti-ovalbumin (OVA) IgE antibody production; assay: IgE antibody production inhibiting effects against anti-ovalbumin (OVA); anti-OVA IgE antibody titer (PCA titer); type: in vivo, BALB/c mice; conditions: consecutive 10 days, OVA-immunized BALB/c mouse, Log2 of maximum serum dilution giving PCA positive reaction in Wistar rat
Procedure: Test Example 1 IgE Antibody Production Inhibiting Effects Against Anti-ovalbumin (OVA)
BALB/c mice (female, 8-10 weeks old) and Wistar rats (female, 8-10 weeks old) purchased from Japan SLC (Shizuoka) were used.
2) Method of Immunization
0.2 mL of a solution obtained by suspending 2 μg of ovalbumin (OVA) and 2 mg of aluminium hydroxide gel in a physiological saline was injected in a BALB/c mouse intraperitoneally to immunize it. After ten days, blood was taken from the heart, serum was separated, and stored at −40° C. until the IgE antibody titer was measured.
[…] Administration was carried out for consecutive 10 days from an immunization day to the day before a blood collection day.
4) Measurement of Anti-OVA IgE Antibody Titer (PCA Titer)
The resulting mouse serum was prepared into a 2-fold dilution series using a physiological saline, each 50 μl of which was injected to a pre-haircut Wistar rat intracutaneously at a back. After 24 hours, 0.5 mL of a physiological saline containing 1 mg of OVA and 5 mg of Evans Blue pigment was injected intravenously to induce passive cutaneous anaphylaxis reaction (PCA). After 30 minutes, a maximum dilution rate of the serum showing PCA positive reaction of a pigment spot having a diameter of 5 mm or more was determined, and Log2 of its dilution rate was adopted as a PCA titer. For example, when a serum becomes PCA reaction positive until 2^7-fold dilution, an anti-OVA IgE antibody titer of the mouse is 7.

[2] = Oral absorption test, non-fasting rat (Test Example 4); type: in vivo
Procedure: (§1) The present compound (I-1) was ground with an agate mortar, which was prepared into an aqueous suspension having the concentration of 10 mg/mL using a 0.5% aqueous methylcellulose solution as a vehicle. Each compound was orally administered to a Jcl:SD male rat (10 weeks old, 18 hours fasting) as a parent compound at a rate of 20 mg/kg. 0.5, 1, 2, 4, 6, 8 and 24 hours after administration, 0.3 mL of blood was taken from a cannula inserted in rat jugular in advance. The blood was centrifuged to obtain a plasma. 0.5 mL of a mixed solution of methanol and acetonitrile (1/1 (w/w)) was added to 0.1 mL of the plasma, proteins were removed therefrom, followed by centrifugation. The supernatant was used as a HPLC sample.
Test Example 4 Oral Absorption Test
The oral absorbabilities of the present compound (I-16) and its parent compound (II-1) were measured as in Test Example 2 using a non-fasting rat.

[3] = Oral absorption test, fasting rat (Test Examples 2 and 3); type: in vivo, Jcl:SD male rat; conditions: rat 18 hours fasting
Procedure: Test Example 2 Oral Absorption Test
as §1
The oral absorbabilities of the present compound (I-163) and its parent compound (II-4) were measured as in Test Example 2.

[4] = oral administration, only parent compound (II-1) observed
[5] = plasma concentration of parent compound (II-1) after oral administration
[6] = plasma concentration of parent compound after oral administration, 20 mg/kg as parent compound

In the case of `CC(=O)NCC(=O)NCC(=O)OCOC(=O)N(CC=C(C)C)c1ccc(-c2cc(C)c(-c3ccc(OCC=C(C)C)nc3)cc2C)c(F)c1` [Compound I-16, (2-acetylamino-ethanoylamino)-acetic acid [{2-fluoro-2′,5′-dimethyl-4′-[6-(3-methyl-but-2-enyloxy)-pyridin-3-yl]-biphenyl-4yl]}-((E)-3-methyl-but-2-enyl)-carbamoyloxy]-methyl ester], the “anti-OVA IgE antibody titer (PCA titer)” value ([1]; 10 mg/Kg orally) is reported as <0, the “administered prodrug itself in the circulating plasma” value [2, 4] is reported as “not detected” and the AUC [2, 5] is reported as 165520 ng·h/mL. The Cmax [2, 5] was 16020 ng/mL.

In the case of `CC(C)=CCOc1ccc(-c2cc(C)c(-c3ccc(N(CC=C(C)C)C(=O)OCOC(=O)CCC(N)=O)cc3F)cc2C)cn1` [Compound I-1], the “anti-OVA IgE antibody titer (PCA titer)” value ([1]; 3 mg/Kg orally) is reported as 7.0, the “anti-OVA IgE antibody titer (PCA titer)” value ([1]; 10 mg/Kg orally) is reported as 0.8 and the “administered prodrug itself in the circulating plasma” value [3, 4] is reported as “not detected”. It also gave an AUC [3, 6] of 32030 ng·h/mL and a Cmax [3, 6] of 2500 ng/mL.

For `CC(=O)NC(CCC(N)=O)C(=O)OCOC(=O)N(CC=C(C)C)c1ccc(-c2cc(C)c(-c3ccc(OCC=C(C)C)nc3)cc2C)c(F)c1` (stereo not drawn) [Compound I-15, 2-acetylamino-4-carbamoyl-butyric acid [{2-fluoro-2′,5′-dimethyl-4′-[6-(3-methyl-but-2-enyloxy)-pyridin-3-yl]-biphenyl-4-yl}-((E)-3-methyl-but-2-enyl)-carbamoyloxy]-methyl ester], the “anti-OVA IgE antibody titer (PCA titer)” value ([1]; 10 mg/Kg orally) was 0.

In the case of `CC(=O)NC(CCC(=O)OCOC(=O)N(CC=C(C)C)c1ccc(-c2cc(C)c(-c3ccc(OCC=C(C)C)nc3)cc2C)c(F)c1)C(N)=O` (stereo not drawn) [Compound I-6, 4-acetylamino-4-carbamoyl-butyric acid [{2-fluoro-2′,5′-dimethyl-4′-[6-(3-methyl-but-2-enyloxy)-pyridin-3-yl]-biphenyl-4-yl}-(3-methyl-but-2-enyl)-carbamoyloxy]-methyl ester], the “anti-OVA IgE antibody titer (PCA titer)” value ([1]; 10 mg/Kg orally) is reported as 1.8.

For `CC(=O)NC(CC(N)=O)C(=O)OCOC(=O)N(CC=C(C)C)c1ccc(-c2cc(C)c(-c3ccc(OCC=C(C)C)nc3)cc2C)c(F)c1` (stereo not drawn) [Compound I-13, 2-acetylamino-succinamic acid [{2-fluoro-2′,5′-dimethyl-4′-[6-(3-methyl-but-2-enyloxy)-pyridin-3-yl]-biphenyl-4-yl}-((E)-3-methyl-but-2-enyl)-carbamoyloxy]-methylester], the “anti-OVA IgE antibody titer (PCA titer)” value ([1]; 10 mg/Kg orally) was <0.
